The target in the assay is T1, human cloned CHRM5 receptor (Homo sapiens, UniProt P08912).
T1 construct: expressed in transfected cells; host or cells: CHO (M5_CHO)
T1 sequence (P08912 1-532): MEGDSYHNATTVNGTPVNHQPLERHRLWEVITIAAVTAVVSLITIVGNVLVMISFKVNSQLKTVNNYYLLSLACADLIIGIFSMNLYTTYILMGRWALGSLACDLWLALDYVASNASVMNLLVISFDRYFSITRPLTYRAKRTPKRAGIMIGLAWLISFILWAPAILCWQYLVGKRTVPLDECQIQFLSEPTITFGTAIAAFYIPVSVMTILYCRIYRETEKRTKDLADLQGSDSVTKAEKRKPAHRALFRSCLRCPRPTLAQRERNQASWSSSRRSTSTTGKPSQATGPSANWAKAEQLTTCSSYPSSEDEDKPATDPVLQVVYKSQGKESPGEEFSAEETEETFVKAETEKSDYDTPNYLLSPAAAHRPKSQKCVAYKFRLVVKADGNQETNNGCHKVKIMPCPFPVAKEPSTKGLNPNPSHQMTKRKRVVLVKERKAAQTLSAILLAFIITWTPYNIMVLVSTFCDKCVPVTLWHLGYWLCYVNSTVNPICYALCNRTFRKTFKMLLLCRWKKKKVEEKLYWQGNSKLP
Briefly: CHRM5 Ca++ Flux Assay (M5_CHO cells, agonist mode). The assay is classed as cell-based. The note with it: for Emax: Percent Activity (PA) measured to EC100 of Carbachol, read-out: M5 FDSS PA %; for EC50: agonist mode, geometric mean if tested more than once, read-out: M5 FDSS EC50. In short, it runs like this: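 CHO-K1 cells stably expressing human M3 or M5 receptor, dye-loaded ≥1 h, treated with 11-point compound doses in triplicate; Ca++ flux read over 3 min (FDSS). Agonist-mode four-parameter fit; percent activity relative to carbachol EC100; repeat tests reported as geometric mean.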

In the case of `COc1ccccc1C1CCN([C@@H]2COC3(C2)CN(c2nnco2)C3)CC1` [Example 1Q, (S)-7-(4-(2-methoxyphenyl)piperidin-1-yl)-2-(1,3,4-oxadiazol-2-yl)-5-oxa-2-azaspiro[3.4]octane], the Emax amounted to 0% and the concentration giving a half-maximal response (EC50) is greater than 25 µM.

On to `Fc1ccc(OCc2ncccn2)c(C2CCN([C@@H]3COC4(C3)CN(c3nnco3)C4)CC2)c1` [Example 2I, (S)-7-(4-(5-fluoro-2-(pyrimidin-2-ylmethoxy)phenyl)piperidin-1-yl)-2-(1,3,4-oxadiazol-2-yl)-5-oxa-2-azaspiro[3.4]octane], for which the Emax is 0% and the EC50 was greater than 25 µM.

Consider `CC(C)(O)CCOc1cc(F)ccc1C1CCN([C@@H]2COC3(C2)CN(c2nncs2)C3)CC1` [Example 5V, (S)-4-(2-(1-(2-(1,3,4-thiadiazol-2-yl)-5-oxa-2-azaspiro[3.4]octan-7-yl)piperidin-4-yl)-5-fluorophenoxy)-2-methylbutan-2-ol], for which the Emax was found to be 0% and the EC50 is greater than 25 µM.

For `COCCOc1ccc(F)cc1C1CCN([C@@H]2COC3(C2)CN(c2nnco2)C3)CC1` [Example 1L, (S)-7-(4-(5-fluoro-2-(2-methoxyethoxy)phenyl)piperidin-1-yl)-2-(1,3,4-oxadiazol-2-yl)-5-oxa-2-azaspiro[3.4]octane], the Emax is 0% and the EC50 was greater than 25 µM.

Take `c1ccc(C2CCN([C@@H]3COC4(C3)CN(c3nnco3)C4)CC2)c(O[C@@H]2CCOC2)c1` [Example 1O, (S)-2-(1,3,4-oxadiazol-2-yl)-7-(4-(2-(((R)-tetrahydrofuran-3-yl)oxy)phenyl)piperidin-1-yl)-5-oxa-2-azaspiro[3.4]octane]: the Emax was 0% and the EC50 was greater than 25 µM.

Regarding `Fc1ccc(OC2CCOCC2)c(C2CCN([C@@H]3COC4(C3)CN(c3ncon3)C4)CC2)c1` [Example 6A, (S)-7-(4-(5-fluoro-2-((tetrahydro-2H-pyran-4-yl)oxy)phenyl)piperidin-1-yl)-2-(1,2,4-oxadiazol-3-yl)-5-oxa-2-azaspiro[3.4]octane], the Emax came to 0% and the EC50 was greater than 25 µM.

Regarding `COc1ccc(F)cc1C1CCN([C@@H]2COC3(C2)CN(c2nnco2)C3)CC1` [Example 1V, (S)-7-(4-(5-fluoro-2-methoxyphenyl)piperidin-1-yl)-2-(1,3,4-oxadiazol-2-yl)-5-oxa-2-azaspiro[3.4]octane], the Emax worked out at 0% and the EC50 is greater than 25 µM.

`c1ccc(C2CCN([C@@H]3COC4(C3)CN(c3nnco3)C4)CC2)c(-c2cncnc2)c1` [Example 1W, (S)-2-(1,3,4-oxadiazol-2-yl)-7-(4-(2-(pyrimidin-5-yl)phenyl)piperidin-1-yl)-5-oxa-2-azaspiro[3.4]octane]: the Emax stood at 20% and the EC50 turned out to be 13.8 µM.

With `c1ccc(C2CCN([C@@H]3COC4(C3)CN(c3nnco3)C4)CC2)c(OC2COC2)c1` [Example 1P, (S)-2-(1,3,4-oxadiazol-2-yl)-7-(4-(2-(oxetan-3-yloxy)phenyl)piperidin-1-yl)-5-oxa-2-azaspiro[3.4]octane], the Emax stood at 0% and the EC50 is greater than 25 µM.

Regarding `Fc1ccc(OC2CC3(COC3)C2)c(C2CCN([C@@H]3COC4(C3)CN(c3nnco3)C4)CC2)c1` [Example 2L, (S)-7-(4-(2-((2-oxaspiro[3.3]heptan-6-yl)oxy)-5-fluorophenyl)piperidin-1-yl)-2-(1,3,4-oxadiazol-2-yl)-5-oxa-2-azaspiro[3.4]octane], the Emax was determined as 0% and the EC50 is greater than 25 µM.

As for `CC(C)(O)COc1ccccc1C1CCN([C@@H]2COC3(C2)CN(c2ncns2)C3)CC1` [Example 5Y, (S)-1-(2-(1-(2-(1,2,4-thiadiazol-5-yl)-5-oxa-2-azaspiro[3.4]octan-7-yl)piperidin-4-yl)phenoxy)-2-methylpropan-2-ol], the Emax was 0% and the EC50 was greater than 25 µM.

`Fc1ccc(OC2COC2)c(C2CCN([C@@H]3COC4(C3)CN(c3nnco3)C4)CC2)c1` [Example 1A, (S)-7-(4-(5-fluoro-2-(oxetan-3-yloxy)phenyl)piperidin-1-yl)-2-(1,3,4-oxadiazol-2-yl)-5-oxa-2-azaspiro[3.4]octane]: the Emax was 0% and the EC50 was greater than 25 µM.

On to `COC(C)(C)CCOc1ccc(F)cc1C1CCN([C@@H]2COC3(C2)CN(c2nnco2)C3)CC1` [Example 1K, (S)-7-(4-(5-fluoro-2-(3-methoxy-3-methylbutoxy)phenyl)piperidin-1-yl)-2-(1,3,4-oxadiazol-2-yl)-5-oxa-2-azaspiro[3.4]octane], for which the Emax was 0% and the EC50 was greater than 25 µM.

As to `Fc1ccc(OCC2CCOCC2)c(C2CCN([C@@H]3COC4(C3)CN(c3nnco3)C4)CC2)c1` [Example 1J, (S)-7-(4-(5-fluoro-2-((tetrahydro-2H-pyran-4-yl)methoxy)phenyl)piperidin-1-yl)-2-(1,3,4-oxadiazol-2-yl)-5-oxa-2-azaspiro[3.4]octane], the Emax was 0% and the EC50 is greater than 25 µM.

As for `Fc1ccc(OC2COC2)c(C2CCN([C@@H]3COC4(C3)CN(c3ncon3)C4)CC2)c1` [Example 6B, (S)-7-(4-(5-fluoro-2-(oxetan-3-yloxy)phenyl)piperidin-1-yl)-2-(1,2,4-oxadiazol-3-yl)-5-oxa-2-azaspiro[3.4]octane], the Emax was 0% and the EC50 is greater than 25 µM.

As to `CCc1nnc(COc2ccc(F)cc2C2CCN([C@@H]3COC4(C3)CN(c3nnco3)C4)CC2)s1` [Example 2T, (S)-7-(4-(2-((5-ethyl-1,3,4-thiadiazol-2-yl)methoxy)-5-fluorophenyl)piperidin-1-yl)-2-(1,3,4-oxadiazol-2-yl)-5-oxa-2-azaspiro[3.4]octane], the Emax turned out to be 0% and the EC50 stood at 0.73 µM.

Consider `Fc1cc(O[C@@H]2CCOC2)c(C2CCN([C@@H]3COC4(C3)CN(c3nnco3)C4)CC2)cc1F` [Example 1R, (S)-7-(4-(4,5-difluoro-2-(((R)-tetrahydrofuran-3-yl)oxy)phenyl)piperidin-1-yl)-2-(1,3,4-oxadiazol-2-yl)-5-oxa-2-azaspiro[3.4]octane], for which the Emax stood at 0% and the EC50 is greater than 25 µM.

Take `Cc1cc(COc2ccc(F)cc2C2CCN([C@@H]3COC4(C3)CN(c3nnco3)C4)CC2)on1` [Example 2G, (S)-7-(4-(5-fluoro-2-((3-methylisoxazol-5-yl)methoxy)phenyl)piperidin-1-yl)-2-(1,3,4-oxadiazol-2-yl)-5-oxa-2-azaspiro[3.4]octane]: the Emax came out at 0% and the EC50 is greater than 25 µM.

Take `Fc1ccc(OC[C@H]2CCCO2)c(C2CCN([C@@H]3COC4(C3)CN(c3nnco3)C4)CC2)c1` [Example 2M, (S)-7-(4-(5-fluoro-2-(((R)-tetrahydrofuran-2-yl)methoxy)phenyl)piperidin-1-yl)-2-(1,3,4-oxadiazol-2-yl)-5-oxa-2-azaspiro[3.4]octane]: the Emax turned out to be 0% and the EC50 is greater than 25 µM.

As for `Fc1ccc(OC2COCOC2)c(C2CCN([C@@H]3COC4(C3)CN(c3nnco3)C4)CC2)c1` [Example 1M, (S)-7-(4-(2-((1,3-dioxan-5-yl)oxy)-5-fluorophenyl)piperidin-1-yl)-2-(1,3,4-oxadiazol-2-yl)-5-oxa-2-azaspiro[3.4]octane], the Emax was 0% and the EC50 is greater than 25 µM.

As to `Fc1ccc(OC[C@H]2CCOC2)c(C2CCN([C@@H]3COC4(C3)CN(c3nncs3)C4)CC2)c1` [Example 5X, (S)-7-(4-(5-fluoro-2-(((S)-tetrahydrofuran-3-yl)methoxy)phenyl)piperidin-1-yl)-2-(1,3,4-thiadiazol-2-yl)-5-oxa-2-azaspiro[3.4]octane], the Emax was 0% and the EC50 was greater than 25 µM.

Consider `CC(C)(O)CCOc1cc(F)ccc1C1CCN([C@@H]2COC3(C2)CN(c2nnco2)C3)CC1` [Example 1T, (S)-4-(2-(1-(2-(1,3,4-oxadiazol-2-yl)-5-oxa-2-azaspiro[3.4]octan-7-yl)piperidin-4-yl)-5-fluorophenoxy)-2-methylbutan-2-ol], for which the Emax was found to be 0% and the EC50 was greater than 25 µM.

Consider `Fc1ccc(OC2CC3(COC3)C2)c(C2CCN([C@H]3COC4(C3)CN(c3nnco3)C4)CC2)c1` [Example 7A, (R)-7-(4-(2-((2-oxaspiro[3.3]heptan-6-yl)oxy)-5-fluorophenyl)piperidin-1-yl)-2-(1,3,4-oxadiazol-2-yl)-5-oxa-2-azaspiro[3.4]octane], for which the Emax was found to be 0% and the EC50 was greater than 25 µM.

`Fc1ccc(OCC2(F)COC2)c(C2CCN([C@@H]3COC4(C3)CN(c3nnco3)C4)CC2)c1` [Example 2J, (S)-7-(4-(5-fluoro-2-((3-fluorooxetan-3-yl)methoxy)phenyl)piperidin-1-yl)-2-(1,3,4-oxadiazol-2-yl)-5-oxa-2-azaspiro[3.4]octane]: the Emax worked out at 0% and the EC50 was greater than 25 µM.

Values taken from US11485742B2, “2-azaspiro[3.4]octane derivatives as M4 agonists” (NOVARTIS AG, priority 2019, dated 2022).
